Experimental data as given in US20240239861A1, “GLUCAGON-RECEPTOR SELECTIVE POLYPEPTIDES AND METHODS OF USE THEREOF” (i2O Therapeutics, Inc., priority 2016, published 2024).
Where a SMILES comes first, the peptide text is derived from it. [ ]: non-standard residue; d: D form. Aib = CC(C)(N)C(=O)O

What follows are compounds tested against human GLP-1R (Homo sapiens, UniProt P43220) (assay: Peptide-receptor mediated cAMP accumulation (LANCE Ultra cAMP) in CHO-K1 cells transfected with human GLP-1R). Settings: hGLP1 pEC50 (cAMP mean (n = 3): 11 point curve starting at 1 nM, Table 3).
human GLP-1R, sequence (P43220 24-463): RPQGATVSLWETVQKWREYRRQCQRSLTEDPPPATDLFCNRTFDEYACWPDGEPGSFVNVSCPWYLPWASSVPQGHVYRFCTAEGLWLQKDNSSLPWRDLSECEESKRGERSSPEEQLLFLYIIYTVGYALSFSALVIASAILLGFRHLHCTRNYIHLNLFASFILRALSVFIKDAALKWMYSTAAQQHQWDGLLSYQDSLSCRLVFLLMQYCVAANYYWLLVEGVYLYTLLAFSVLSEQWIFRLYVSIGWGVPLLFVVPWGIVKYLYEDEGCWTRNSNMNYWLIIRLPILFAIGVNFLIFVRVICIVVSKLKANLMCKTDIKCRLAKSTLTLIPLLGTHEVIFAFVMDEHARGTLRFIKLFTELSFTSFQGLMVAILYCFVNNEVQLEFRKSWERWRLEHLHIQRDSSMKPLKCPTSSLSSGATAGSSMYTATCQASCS
Type: cell-based
For `CC(C)C[C@H](NC(=O)[C@H](Cc1ccc(O)cc1)NC(=O)[C@H](CCCCN)NC(=O)[C@H](CO)NC(=O)[C@H](Cc1ccc(O)cc1)NC(=O)[C@H](CC(=O)O)NC(=O)[C@H](CO)NC(=O)[C@@H](NC(=O)[C@H](Cc1ccccc1)NC(=O)[C@@H](NC(=O)CNC(=O)[C@H](Cc1c[nH]cn1)NC(=O)[C@H](CO)NC(=O)[C@@H](N)Cc1ccc(O)cc1)[C@@H](C)O)[C@@H](C)O)C(=O)N[C@@H](CC(=O)O)C(=O)NC(C)(C)C(=O)N[C@@H](CCCCN)C(=O)N[C@@H](CCCNC(=N)N)C(=O)N[C@@H](C)C(=O)N[C@@H](CCC(N)=O)C(=O)N[C@@H](CCC(=O)O)C(=O)N[C@@H](Cc1ccccc1)C(=O)N[C@H](C(=O)NC(C)(C)C(=O)N[C@@H](Cc1c[nH]c2ccccc12)C(=O)N[C@@H](CC(C)C)C(=O)N[C@@H](CCC(=O)O)C(=O)N[C@@H](CCC(=O)O)C(=O)N[C@@H](CCC(=O)O)C(=O)N1CCC[C@H]1C(=O)N[C@@H](CO)C(=O)N[C@@H](CO)C(=O)NCC(=O)N[C@@H](C)C(=O)N1CCC[C@H]1C(=O)N1CCC[C@H]1C(=O)N1CCC[C@H]1C(=O)N[C@@H](CO)C(=O)O)C(C)C` [Compound A9] (H-YSHGTFTSDYSKYLD[Aib]KRAQEFV[Aib]WLEEEPSSGAPPPS-OH; N-terminus assumed), the EC50 was over 1 nM. `CC(C)C[C@H](NC(=O)[C@H](Cc1ccc(O)cc1)NC(=O)[C@H](CCCCN)NC(=O)[C@H](CO)NC(=O)[C@H](Cc1ccc(O)cc1)NC(=O)[C@H](CC(=O)O)NC(=O)[C@H](CO)NC(=O)[C@@H](NC(=O)[C@H](Cc1ccccc1)NC(=O)[C@@H](NC(=O)CNC(=O)[C@H](Cc1c[nH]cn1)NC(=O)[C@H](CO)NC(=O)[C@@H](N)Cc1ccc(O)cc1)[C@@H](C)O)[C@@H](C)O)C(=O)N[C@@H](CC(=O)O)C(=O)NC(C)(C)C(=O)N[C@@H](CCCCN)C(=O)N[C@@H](CCCNC(=N)N)C(=O)N[C@@H](C)C(=O)N[C@@H](CCC(N)=O)C(=O)N[C@@H](CCC(=O)O)C(=O)N[C@@H](Cc1ccccc1)C(=O)N[C@H](C(=O)NC(C)(C)C(=O)N[C@@H](Cc1c[nH]c2ccccc12)C(=O)N[C@@H](CC(C)C)C(=O)N[C@@H](CCC(=O)O)C(=O)N[C@@H](CC(=O)O)C(=O)N[C@@H](CCC(=O)O)C(=O)NCC(=O)N[C@@H](C)C(=O)N1CCC[C@H]1C(=O)N1CCC[C@H]1C(=O)N1CCC[C@H]1C(=O)N[C@@H](CO)C(=O)O)C(C)C` [Compound A12] (H-YSHGTFTSDYSKYLD[Aib]KRAQEFV[Aib]WLEDEGAPPPS-OH; N-terminus assumed) was tested, and the EC50 was over 1 nM. In the case of `CC(C)C[C@H](NC(=O)[C@H](Cc1ccc(O)cc1)NC(=O)[C@H](CCCCN)NC(=O)[C@H](CO)NC(=O)[C@H](Cc1ccc(O)cc1)NC(=O)[C@H](CC(=O)O)NC(=O)[C@H](CO)NC(=O)[C@@H](NC(=O)[C@H](Cc1ccccc1)NC(=O)[C@@H](NC(=O)CNC(=O)[C@H](Cc1c[nH]cn1)NC(=O)[C@H](CO)NC(=O)[C@@H](N)Cc1ccc(O)cc1)[C@@H](C)O)[C@@H](C)O)C(=O)N[C@@H](CC(=O)O)C(=O)NC(C)(C)C(=O)N[C@@H](CCCCN)C(=O)N[C@@H](CCCNC(=N)N)C(=O)N[C@@H](C)C(=O)N[C@@H](CCC(N)=O)C(=O)N[C@@H](CCC(=O)O)C(=O)N[C@@H](Cc1ccccc1)C(=O)N[C@H](C(=O)NC(C)(C)C(=O)N[C@@H](Cc1c[nH]c2ccccc12)C(=O)N[C@@H](CC(C)C)C(=O)N[C@@H](CCC(=O)O)C(=O)N[C@@H](CC(=O)O)C(=O)N[C@@H](CCC(=O)O)C(=O)N[C@@H](CO)C(=O)NCC(=O)N[C@@H](C)C(=O)N1CCC[C@H]1C(=O)N1CCC[C@H]1C(=O)N1CCC[C@H]1C(=O)N[C@@H](CO)C(=O)O)C(C)C` [Compound A13] (H-YSHGTFTSDYSKYLD[Aib]KRAQEFV[Aib]WLEDESGAPPPS-OH; N-terminus assumed), the EC50 is reported as over 1 nM. Compound `CC(C)C[C@H](NC(=O)[C@H](Cc1c[nH]c2ccccc12)NC(=O)[C@H](CCCCN)NC(=O)[C@H](CO)NC(=O)[C@H](Cc1ccc(O)cc1)NC(=O)[C@H](CC(=O)O)NC(=O)[C@H](CO)NC(=O)[C@@H](NC(=O)[C@H](Cc1ccccc1)NC(=O)[C@@H](NC(=O)CNC(=O)[C@H](Cc1c[nH]cn1)NC(=O)[C@H](CO)NC(=O)[C@@H](N)Cc1ccc(O)cc1)[C@@H](C)O)[C@@H](C)O)C(=O)N[C@@H](CC(=O)O)C(=O)NC(C)(C)C(=O)N[C@@H](C)C(=O)N[C@@H](CCCNC(=N)N)C(=O)N[C@@H](C)C(=O)N[C@@H](CCC(N)=O)C(=O)N[C@@H](CCC(=O)O)C(=O)N[C@@H](Cc1ccccc1)C(=O)N[C@H](C(=O)NC(C)(C)C(=O)N[C@@H](Cc1c[nH]c2ccccc12)C(=O)N[C@@H](CC(C)C)C(=O)N[C@@H](CCC(=O)O)C(=O)N[C@@H](CC(=O)O)C(=O)N[C@@H](CCC(=O)O)C(=O)N1CCC[C@H]1C(=O)N[C@@H](CO)C(=O)N[C@@H](CO)C(=O)NCC(=O)N[C@@H](C)C(=O)N1CCC[C@H]1C(=O)N1CCC[C@H]1C(=O)N1CCC[C@H]1C(=O)N[C@@H](CO)C(=O)O)C(C)C` [Compound A18] (H-YSHGTFTSDYSKWLD[Aib]ARAQEFV[Aib]WLEDEPSSGAPPPS-OH; N-terminus assumed) has an EC50 of over 1 nM. For `CC(C)C[C@H](NC(=O)[C@H](Cc1ccc(O)cc1)NC(=O)[C@H](CCCCN)NC(=O)[C@H](CO)NC(=O)[C@H](Cc1ccc(O)cc1)NC(=O)[C@H](CC(=O)O)NC(=O)[C@H](CO)NC(=O)[C@@H](NC(=O)[C@H](Cc1ccccc1)NC(=O)[C@@H](NC(=O)CNC(=O)[C@H](Cc1c[nH]cn1)NC(=O)[C@H](CO)NC(=O)[C@@H](N)Cc1ccc(O)cc1)[C@@H](C)O)[C@@H](C)O)C(=O)N[C@@H](CC(=O)O)C(=O)NC(C)(C)C(=O)N[C@@H](CCCCN)C(=O)N[C@@H](CCCNC(=N)N)C(=O)N[C@@H](C)C(=O)N[C@@H](CCC(N)=O)C(=O)N[C@@H](CCC(=O)O)C(=O)N[C@@H](Cc1ccccc1)C(=O)N[C@H](C(=O)NC(C)(C)C(=O)N[C@@H](Cc1c[nH]c2ccccc12)C(=O)N[C@@H](CC(C)C)C(=O)N[C@@H](CCC(=O)O)C(=O)N[C@@H](CC(=O)O)C(=O)N[C@@H](CCC(=O)O)C(=O)N1CCC[C@H]1C(=O)N[C@@H](CO)C(=O)N[C@@H](CO)C(=O)N[C@@H](CCCCN)C(=O)NCC(=O)N[C@@H](C)C(=O)N1CCC[C@H]1C(=O)N1CCC[C@H]1C(=O)N1CCC[C@H]1C(=O)N[C@@H](CO)C(=O)O)C(C)C` [Compound A24] (H-YSHGTFTSDYSKYLD[Aib]KRAQEFV[Aib]WLEDEPSSKGAPPPS-OH), the EC50 was over 1 nM. `CC(C)C[C@H](NC(=O)[C@H](Cc1ccc(O)cc1)NC(=O)[C@H](CCCCN)NC(=O)[C@H](CO)NC(=O)[C@H](Cc1ccc(O)cc1)NC(=O)[C@H](CC(=O)O)NC(=O)[C@H](CO)NC(=O)[C@@H](NC(=O)[C@H](Cc1ccccc1)NC(=O)[C@@H](NC(=O)CNC(=O)[C@H](Cc1c[nH]cn1)NC(=O)[C@H](CO)NC(=O)[C@@H](N)Cc1ccc(O)cc1)[C@@H](C)O)[C@@H](C)O)C(=O)N[C@@H](CC(=O)O)C(=O)NC(C)(C)C(=O)N[C@@H](CCCCN)C(=O)N[C@@H](CCCNC(=N)N)C(=O)N[C@@H](C)C(=O)N[C@@H](CCC(N)=O)C(=O)N[C@@H](CCC(=O)O)C(=O)N[C@@H](Cc1ccccc1)C(=O)N[C@H](C(=O)NC(C)(C)C(=O)N[C@@H](Cc1c[nH]c2ccccc12)C(=O)N[C@@H](CC(C)C)C(=O)N[C@@H](CCC(=O)O)C(=O)N[C@@H](CC(=O)O)C(=O)N[C@@H](CCC(=O)O)C(=O)NCC(=O)NCC(=O)N1CCC[C@H]1C(=O)N[C@@H](CO)C(=O)N[C@@H](CO)C(=O)NCC(=O)N[C@@H](C)C(=O)N1CCC[C@H]1C(=O)N1CCC[C@H]1C(=O)N1CCC[C@H]1C(=O)N[C@@H](CO)C(=O)O)C(C)C` [Compound A27] (H-YSHGTFTSDYSKYLD[Aib]KRAQEFV[Aib]WLEDEGGPSSGAPPPS-OH; N-terminus assumed) was tested, and the EC50 was over 1 nM. `CC(C)C[C@H](NC(=O)[C@H](Cc1c[nH]c2ccccc12)NC(=O)[C@H](CCCCN)NC(=O)[C@H](CO)NC(=O)[C@H](Cc1ccc(O)cc1)NC(=O)[C@H](CC(=O)O)NC(=O)[C@H](CO)NC(=O)[C@@H](NC(=O)[C@H](Cc1ccccc1)NC(=O)[C@@H](NC(=O)CNC(=O)[C@H](Cc1c[nH]cn1)NC(=O)[C@@H](NC(=O)[C@@H](N)Cc1ccc(O)cc1)[C@@H](C)O)[C@@H](C)O)[C@@H](C)O)C(=O)N[C@@H](CC(=O)O)C(=O)NC(C)(C)C(=O)N[C@@H](CCCCN)C(=O)N[C@@H](CCCNC(=N)N)C(=O)N[C@@H](C)C(=O)N[C@@H](CCC(N)=O)C(=O)N[C@@H](CCC(=O)O)C(=O)N[C@@H](Cc1ccccc1)C(=O)N[C@H](C(=O)NC(C)(C)C(=O)N[C@@H](Cc1c[nH]c2ccccc12)C(=O)N[C@@H](CC(C)C)C(=O)N[C@@H](CCC(=O)O)C(=O)N[C@@H](CC(=O)O)C(=O)N[C@@H](CCC(=O)O)C(=O)N1CCC[C@H]1C(=O)N[C@@H](CO)C(=O)N[C@@H](CO)C(=O)NCC(=O)N[C@@H](C)C(=O)N1CCC[C@H]1C(=O)N1CCC[C@H]1C(=O)N1CCC[C@H]1C(=O)N[C@@H](CO)C(=O)O)C(C)C` [Compound A32] (H-YTHGTFTSDYSKWLD[Aib]KRAQEFV[Aib]WLEDEPSSGAPPPS-OH; N-terminus assumed) was tested, and the EC50 was over 1 nM. `CC(C)C[C@H](NC(=O)[C@H](Cc1ccc(O)cc1)NC(=O)[C@H](CCCCN)NC(=O)[C@H](CO)NC(=O)[C@H](Cc1ccc(O)cc1)NC(=O)[C@H](CC(=O)O)NC(=O)[C@H](CO)NC(=O)[C@@H](NC(=O)[C@H](Cc1ccccc1)NC(=O)[C@@H](NC(=O)CNC(=O)[C@H](Cc1c[nH]cn1)NC(=O)[C@H](CO)NC(=O)[C@@H](N)Cc1ccc(O)cc1)[C@@H](C)O)[C@@H](C)O)C(=O)N[C@@H](CC(=O)O)C(=O)N[C@@H](CO)C(=O)N[C@@H](C)C(=O)N[C@@H](CCCNC(=N)N)C(=O)N[C@@H](C)C(=O)N[C@@H](CCC(N)=O)C(=O)N[C@@H](CCC(=O)O)C(=O)N[C@@H](Cc1ccccc1)C(=O)N[C@H](C(=O)N[C@@H](CCCCN)C(=O)N[C@@H](Cc1c[nH]c2ccccc12)C(=O)N[C@@H](CC(C)C)C(=O)N[C@@H](CCC(=O)O)C(=O)N[C@@H](CC(=O)O)C(=O)N[C@@H](CCC(=O)O)C(=O)N1CCC[C@H]1C(=O)N[C@@H](CO)C(=O)N[C@@H](CO)C(=O)NCC(=O)N[C@@H](C)C(=O)N1CCC[C@H]1C(=O)N1CCC[C@H]1C(=O)N1CCC[C@H]1C(=O)N[C@@H](CO)C(=O)O)C(C)C` [Compound A37] (H-YSHGTFTSDYSKYLDSARAQEFVKWLEDEPSSGAPPPS-OH; N-terminus assumed) showed an EC50 of over 1 nM.
